# Values joined by “and” are separate entries in the source; they are usually repeats but may differ in a detail not shown here. Equal entries are not always repeated.
# Columns and labels:
# [1] = molecular target: Brachypodium distachyon BdDHS2, SEQ ID NO: 5, recombinant (Brachypodium distachyon, UniProt I1I809); test: DHS activity: kinetics and effector inhibition; type: biochemical; conditions: read-out: inhibition at 0.5 mM
# Excerpt: (§1) To examine their functional properties, the recombinant DHS enzymes of Brachypodium were produced and characterized in vitro.
# (§2) As recent studies have shown that plant DHS enzymes are feedback-inhibited by multiple effector molecules^15, 16, we tested the effect of AAAs and another 14 related metabolites, including various intermediates of the shikimate pathway and the pathways downstream of AAAs, on Brachypodium DHS enzymes.
# (§3) The DHS assay for UHPLC-MS quantification was set up using the same settings as described in the previous paragraph for the UV-based DHS assay, which guaranteed at least 10 minutes of reaction linearity. After a 10-minute incubation, 20 μL of the reactions (out of a total volume of 50 μL) were mixed into 80 μL of methanol, vortexed and transferred to vials for injection. Analysis of DAHP by UHPLC-MS was conducted using the same chromatographic settings as described for the UHPLC-MS analysis of soluble metabolites and compared with an authentic DAHP standard (Sta. Cruz biotechnology, cat. no. sc-216432).
# [2] = molecular target: Brachypodium distachyon BdDHS1b, SEQ ID NO: 3, recombinant (Brachypodium distachyon, UniProt I1H4W3); test: DHS activity: kinetics and effector inhibition; type: biochemical; conditions: read-out: inhibition at 0.5 mM
# Sequence of Brachypodium distachyon BdDHS1b, SEQ ID NO: 3, recombinant (I1H4W3 37-542): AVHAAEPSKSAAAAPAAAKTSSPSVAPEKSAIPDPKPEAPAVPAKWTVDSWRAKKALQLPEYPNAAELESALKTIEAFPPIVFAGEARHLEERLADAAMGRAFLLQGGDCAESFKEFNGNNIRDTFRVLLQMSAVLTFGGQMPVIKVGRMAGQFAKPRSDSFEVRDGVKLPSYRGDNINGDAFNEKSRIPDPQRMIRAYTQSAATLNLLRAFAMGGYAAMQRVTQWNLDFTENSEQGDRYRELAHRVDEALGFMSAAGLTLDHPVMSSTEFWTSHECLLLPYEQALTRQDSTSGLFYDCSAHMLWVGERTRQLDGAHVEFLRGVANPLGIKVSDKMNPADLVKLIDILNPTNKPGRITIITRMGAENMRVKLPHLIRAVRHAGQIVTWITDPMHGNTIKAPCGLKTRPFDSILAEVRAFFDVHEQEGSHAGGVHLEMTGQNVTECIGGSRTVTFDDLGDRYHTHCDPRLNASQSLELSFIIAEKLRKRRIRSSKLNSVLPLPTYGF
# Excerpt: as §1, §2, §3
# [3] = tested on: recombinant Sorghum DHS enzymes; test: DHS activity: effector inhibition; type: biochemical, Sorghum bicolor; conditions: 0.5 mM (FIG. 17)
# Description: In contrast, BdDHS1b was not inhibited by arogenate even up to 2.5 mM. In fact, DHS1b activity increased in the presence of high concentrations of arogenate (FIG. 4F), likely due to high concentrations of contaminant NaCl present in the arogenate preparation (FIG. 16). Under acidic conditions, arogenate is known to undergo a spontaneous dehydration and decarboxylation into […]. […] Like in Brachypodium DHS enzymes, 0.5 mM arogenate inhibited SbDHS1a and SbDHS2 at ˜50% and ˜40%, respectively, but had no effect on SbDHS1b.
# grass DHS enzymes = test: DHS activity: effector inhibition; type: biochemical; conditions: 0.5 mM (FIGS. 4, 15, 17)
# Description: as §2, §3
# [4] = molecular target: T1, Brachypodium distachyon BdTyrA2, SEQ ID NO: 35, recombinant (Brachypodium distachyon, UniProt I1GWX1); test: TyrA arogenate dehydrogenase kinetics and tyrosine inhibition (340 nm); type: biochemical
# T1 sequence (I1GWX1 55-365): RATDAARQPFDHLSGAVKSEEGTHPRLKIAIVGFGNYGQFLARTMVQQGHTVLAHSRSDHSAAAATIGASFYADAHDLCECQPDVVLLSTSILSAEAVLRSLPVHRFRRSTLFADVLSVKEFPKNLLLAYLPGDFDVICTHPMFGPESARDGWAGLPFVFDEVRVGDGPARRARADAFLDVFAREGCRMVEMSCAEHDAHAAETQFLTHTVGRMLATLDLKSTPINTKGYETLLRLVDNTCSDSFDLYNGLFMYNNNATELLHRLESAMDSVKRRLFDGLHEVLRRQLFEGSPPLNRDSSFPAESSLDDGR
# Excerpt: (§4) Next, to study the biochemical properties of grass TyrA enzymes, we generated and characterized recombinant purified TyrA proteins from Brachypodium (BdTyrA) and Sorghum (SbTyrA), two distantly related grass species^43, 44. Whereas TyrA enzymes from dicot plants are generally NADP^+-dependent arogenate dehydrogenases^20, 39, 45, except for NADP^+-prephenate dehydrogenases in the legume family^40, 46, previous reports on the substrate preference of grass TyrA enzymes are inconclusive^17, 19. […] NAD^+-prephenate dehydrogenase activity was absent in all cases, ruling out a significant contamination of the enzyme preparations with the TyrA enzyme from E. coli^47.48.
# [5] = molecular target: T2, Sorghum bicolor SbTyrA1, SEQ ID NO: 39, recombinant (Sorghum bicolor, UniProt A0A194YLK4); test: as above; type: biochemical
# T2 construct: from genomic DNA
# T2 sequence (A0A194YLK4 475-836): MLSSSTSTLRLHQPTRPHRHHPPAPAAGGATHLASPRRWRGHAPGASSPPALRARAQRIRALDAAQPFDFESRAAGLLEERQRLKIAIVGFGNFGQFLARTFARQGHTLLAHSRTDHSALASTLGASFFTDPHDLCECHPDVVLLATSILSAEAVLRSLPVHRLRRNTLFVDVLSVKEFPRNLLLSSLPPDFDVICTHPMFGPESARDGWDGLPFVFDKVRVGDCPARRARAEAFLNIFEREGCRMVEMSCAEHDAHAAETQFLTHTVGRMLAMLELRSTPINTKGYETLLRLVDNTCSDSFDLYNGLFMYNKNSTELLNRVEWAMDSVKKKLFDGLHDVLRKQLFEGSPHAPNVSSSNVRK
# Excerpt: as §4
# [6] = molecular target: T3, Sorghum bicolor SbTyrAnc (non-canonical TyrA), SEQ ID NO: 43, recombinant (Sorghum bicolor, UniProt C5Z447); test: as above; type: biochemical
# T3 construct: from cDNA
# T3 sequence (C5Z447 56-382): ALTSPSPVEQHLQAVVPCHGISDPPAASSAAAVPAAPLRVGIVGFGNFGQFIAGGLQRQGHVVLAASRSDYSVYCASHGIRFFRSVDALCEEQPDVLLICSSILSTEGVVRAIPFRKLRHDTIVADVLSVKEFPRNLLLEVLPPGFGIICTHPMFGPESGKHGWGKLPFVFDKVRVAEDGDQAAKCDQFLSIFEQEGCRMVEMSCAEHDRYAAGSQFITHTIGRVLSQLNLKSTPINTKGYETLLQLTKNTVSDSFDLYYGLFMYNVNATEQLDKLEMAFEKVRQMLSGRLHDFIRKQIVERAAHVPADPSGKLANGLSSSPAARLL
# Excerpt: as §4
# [7] = molecular target: T4, Sorghum bicolor SbTyrA2, SEQ ID NO: 41, recombinant (Sorghum bicolor, UniProt C5Z9D2); test: as above; type: biochemical
# T4 construct: from genomic DNA
# T4 sequence (C5Z9D2 53-389): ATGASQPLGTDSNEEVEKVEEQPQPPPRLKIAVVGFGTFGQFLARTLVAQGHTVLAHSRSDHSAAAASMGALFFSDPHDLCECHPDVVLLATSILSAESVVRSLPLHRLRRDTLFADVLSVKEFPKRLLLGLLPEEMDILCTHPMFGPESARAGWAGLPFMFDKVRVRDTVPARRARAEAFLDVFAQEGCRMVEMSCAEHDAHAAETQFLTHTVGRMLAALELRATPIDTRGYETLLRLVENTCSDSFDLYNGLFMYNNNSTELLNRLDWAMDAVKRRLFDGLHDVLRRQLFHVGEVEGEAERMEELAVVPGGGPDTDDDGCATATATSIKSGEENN
# Excerpt: as §4
# Sequence of Brachypodium distachyon BdDHS2, SEQ ID NO: 5, recombinant (I1I809 31-503): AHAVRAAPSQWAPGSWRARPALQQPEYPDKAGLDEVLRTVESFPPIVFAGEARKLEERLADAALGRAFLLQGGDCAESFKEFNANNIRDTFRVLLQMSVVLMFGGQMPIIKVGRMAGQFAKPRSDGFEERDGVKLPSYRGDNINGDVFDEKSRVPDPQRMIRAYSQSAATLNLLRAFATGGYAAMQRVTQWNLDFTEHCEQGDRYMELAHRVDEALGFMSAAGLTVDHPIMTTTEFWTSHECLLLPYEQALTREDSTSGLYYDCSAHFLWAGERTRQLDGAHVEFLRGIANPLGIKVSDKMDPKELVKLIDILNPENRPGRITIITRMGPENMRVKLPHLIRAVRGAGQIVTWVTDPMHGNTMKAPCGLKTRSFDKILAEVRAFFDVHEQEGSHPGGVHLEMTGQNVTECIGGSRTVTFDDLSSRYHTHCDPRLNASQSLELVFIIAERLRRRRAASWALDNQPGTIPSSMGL
smiles,measurement,setting,value
N[C@@H](Cc1ccc(O)cc1)C(=O)O [tyrosine],inhibition at 500 µM,[1],~10%
same,inhibition at 500 µM,[2],~10%
same,inhibition at 0.5 mM,[3],no strong inhibition
same,effect on grass DHS at 0.5 mM,grass DHS enzymes,little effect
same,activity at 200 μM of tyrosine,[4]; 200 μM tyrosine,fully inactive
same,IC50,"[4]; IC50 (tyrosine), 0.5 mM arogenate, 1 mM NADP^+",~20 µM and 20 µM
same,Ki,"[4]; calculated from Km and IC50, competitive inhibition model",8 ± 2 µM
same,IC50,[5],71 µM
same,Ki,[5],53 ± 10 µM
same,IC50,[6],406 ± 85 µM
same,Ki,[6],137 ± 44 µM
same,IC50,[7],47 ± 23 µM
same,Ki,[7],36 ± 13 µM

# — patent US20250115926A1, “DEREGULATED DHS AND TYRA ENZYMES OF GRASSES ENABLE EFFICIENT PRODUCTION OF BOTH TYROSINE AND PHENYLALANINE” (Wisconsin Alumni Research Foundation, priority 2023, published 2025)
